In patent EP4722219A1 (Gan & Lee Pharmaceuticals Co., Ltd., priority 2023, dated 2024):

Tests used:
AR protein = target: T1, AR protein (Homo sapiens, UniProt P10275, T878A); test: AR protein degradation in LNCaP cells (Western blot); type: cell-based; conditions: 8 hours; for Degradation of AR protein in LNCaP cells, 10 nM (%) / percent AR protein degradation at a fixed concentration at 0.01 µM: 10 nM; for Degradation of AR protein in LNCaP cells, 100 nM (%) / percent AR protein degradation at a fixed concentration at 0.1 µM: 100 nM
T1 construct: host or cells: LNCaP FGC
T1 sequence (P10275 1-920 T878A): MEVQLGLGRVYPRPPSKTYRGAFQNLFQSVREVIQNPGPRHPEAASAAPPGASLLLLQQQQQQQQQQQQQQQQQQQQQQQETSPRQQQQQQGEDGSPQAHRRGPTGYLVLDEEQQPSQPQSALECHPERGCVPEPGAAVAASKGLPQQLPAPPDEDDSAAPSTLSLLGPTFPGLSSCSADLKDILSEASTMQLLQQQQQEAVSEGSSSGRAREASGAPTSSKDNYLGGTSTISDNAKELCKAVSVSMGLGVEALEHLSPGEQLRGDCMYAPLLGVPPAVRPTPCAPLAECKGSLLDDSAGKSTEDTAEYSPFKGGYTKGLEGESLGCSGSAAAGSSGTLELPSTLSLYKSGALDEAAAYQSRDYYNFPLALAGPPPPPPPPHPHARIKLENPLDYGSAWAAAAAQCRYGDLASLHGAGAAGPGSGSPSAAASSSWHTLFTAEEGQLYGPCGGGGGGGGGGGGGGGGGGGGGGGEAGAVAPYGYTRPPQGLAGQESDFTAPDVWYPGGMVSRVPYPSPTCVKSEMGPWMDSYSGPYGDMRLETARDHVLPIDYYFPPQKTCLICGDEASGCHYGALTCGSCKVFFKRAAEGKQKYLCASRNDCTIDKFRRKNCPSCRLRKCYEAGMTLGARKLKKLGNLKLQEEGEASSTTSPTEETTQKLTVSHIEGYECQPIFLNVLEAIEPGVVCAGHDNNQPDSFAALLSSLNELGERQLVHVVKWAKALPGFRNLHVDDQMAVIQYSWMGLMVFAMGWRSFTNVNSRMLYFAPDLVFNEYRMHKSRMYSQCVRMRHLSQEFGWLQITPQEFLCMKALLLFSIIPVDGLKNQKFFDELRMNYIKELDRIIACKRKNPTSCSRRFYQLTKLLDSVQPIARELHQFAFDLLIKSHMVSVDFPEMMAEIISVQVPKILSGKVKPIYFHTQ
Method in brief: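 LNCaP cells exposed to compound or solvent control for 8 h, lysed in RIPA, protein normalized by BCA. AR detected by SDS-PAGE/Western blot with infrared imaging; band grayscale normalized to GAPDH to calculate AR degradation rate.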

LNCaP cells = test: Inhibition of LNCaP cell proliferation (WST-8); type: cell-based; conditions: Homo sapiens, LNCaP FGC cells, 96 hours
Method in brief: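 Cells were seeded and cultured overnight at 37 °C, 5% CO2, then exposed for 96 h to compound at 9 concentrations, 5-fold serial dilution from 10 µM final. Viability was read by WST-8 absorbance at 450 nm.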

Compound | Degradation of AR protein in LNCaP cells, 10 nM (%) (AR protein) | Degradation of AR protein in LNCaP cells, 100 nM (%) (AR protein) | IC50 (LNCaP cells) | percent AR protein degradation at a fixed concentration at 0.01 µM (AR protein) | percent AR protein degradation at a fixed concentration at 0.1 µM (AR protein)
COc1cc(O[C@H]2C(C)(C)[C@H](NC(=O)c3ccc(N4CCC(C)(CN5CCC6(CC5)COc5cc7c(cc56)n(C)c(=O)n7C5CCC(=O)NC5=O)CC4)cc3)C2(C)C)ccc1C#N (relative stereo) [A-P-16] | 49% | 29% | > 90 µM | – | –
COc1cc(O[C@H]2CC[C@H](NC(=O)c3ccc(N4CCC(CN5CCC6(CC5)COc5c6ccc6c5n(C)c(=O)n6C5CCC(=O)NC5=O)CC4)nn3)CC2)ccc1C#N (stereo partly drawn) [A-P-22] | – | – | 47.6 µM | 48% | 25%
COc1cc(O[C@H]2C(C)(C)[C@H](NC(=O)c3ccc(N4CCC(C)(CN5CCC6(CC5)COc5c6ccc(C(=O)N[C@H]6CCC(=O)NC6=O)c5F)CC4)cc3)C2(C)C)ccc1C#N [A-P-85, 1'-((1-(4-(((1r,3r)-3-(4-cyano-3-methoxyphenoxy)-2,2,4,4-tetramethylcyclobutyl)carbamoyl)phenyl)-4-methylpiperidin-4-yl)methyl)-N-((S)-2,6-dioxopiperidin-3-yl)-7-fluoro-2H-spiro[benzofuran-3,4'-piperidin]-6-carboxamide] | 7% | 40% | 0.29 µM | – | –
COc1cc(O[C@H]2C(C)(C)[C@H](NC(=O)c3ccc(N4CCC(CN5CCC6(CCc7cc(F)c(C(=O)N[C@H]8CCC(=O)NC8=O)cc7O6)CC5)CC4)cc3)C2(C)C)ccc1C#N [A-P-39] | 22% | 39% | 12.4 µM | – | –
COc1cc(O[C@H]2C(C)(C)[C@H](NC(=O)c3ccc(N4CCC(CN5CCC6(CC5)COc5c6ccc(C(=O)N[C@H]6CCC(=O)NC6=O)c5F)CC4)cc3)C2(C)C)ccc1C#N [A-P-83] | 41% | 65% | 0.71 µM | – | –
COc1cc(O[C@H]2C(C)(C)[C@H](NC(=O)c3ccc(N4CCC5(CC4)CC(N4CCC6(CC4)COc4cc7c(cc46)n(C)c(=O)n7C4CCC(=O)NC4=O)C5)cc3)C2(C)C)ccc1C#N (relative stereo) [A-P-21] | 52% | 55% | 8.23 µM | – | –
CC1(C)[C@H](NC(=O)c2ccc(N3CCC(CN4CCC5(CCc6cc(C(=O)N[C@H]7CCC(=O)NC7=O)c(F)cc6O5)CC4)CC3)nc2)C(C)(C)[C@H]1Oc1ccc(C#N)c(C(F)(F)F)c1 [A-P-45, 1'-((1-(5-(((1R,3R)-3-(4-cyano-3-(trifluoromethyl)phenoxy)-2,2,4,4-tetramethylcyclobutyl)carbamoyl)pyridin-2-yl)piperidin-4-yl)methyl)-N-((S)-2,6-dioxopiperidin-3-yl)-7-fluorospiro[chroman-2,4'-piperidin]-6-carboxamide] | 52% | 85% | 0.57 µM | – | –
COc1cc(O[C@H]2C(C)(C)[C@H](NC(=O)c3ccc(N4CCC(CN5CCC6(CC5)COc5c6ccc(C(=O)N[C@H]6CCC(=O)NC6=O)c5F)(OC)CC4)cc3)C2(C)C)ccc1C#N [A-P-86, 1'-((1-(4-(((1r,3r)-3-(4-cyano-3-methoxyphenoxy)-2,2,4,4-tetramethylcyclobutyl)carbamoyl)phenyl)-4-methoxypiperidin-4-yl)methyl)-N-((S)-2,6-dioxopiperidin-3-yl)-7-fluoro-2H-spiro[benzofuran-3,4'-piperidin]-6-carboxamide] | 37% | 39% | 0.39 µM | – | –
C[C@H]1CC2(CCN(c3ccc(N4CCC(CN5CCC6(CC5)COc5ccc7c(c56)n(C)c(=O)n7C5CCC(=O)NC5=O)CC4)cc3)CC2)CN1c1ccc(C#N)c(Cl)c1 (stereo partly drawn) [A-P-26, 2-chloro-4-((3 S)-8-(4-(4-((3-((2,6-dioxopiperidin-3-yl))-1-methyl-2-oxo-2,3-dihydro-1H,7H-spiro[benzofuro[4,5-d]imidazole-8,4'-piperidin]-1'-yl)methyl)piperidin-1-yl)phenyl)-3-methyl-2,8-diazaspiro[4.5]decan-2-yl)benzonitrile] | – | – | 4.91 µM | 48% | 65%
COc1cc(O[C@H]2C(C)(C)[C@H](NC(=O)c3ccc(N4CCC(C)(CN5CC6(CCC7(CC6)COc6c7ccc7c6CN(C6CCC(=O)NC6=O)C7=O)C5)CC4)cc3)C2(C)C)ccc1C#N (relative stereo) [A-P-4] | 74% | 83% | 3.52 µM | – | –
COc1cc(O[C@H]2C(C)(C)[C@H](NC(=O)c3ccc(N4CCC(CN5CCC6(CCc7cc(C(=O)N[C@H]8CCC(=O)NC8=O)c(F)cc7O6)CC5)CC4)cc3)C2(C)C)ccc1C#N [A-P-30] | 41% | 78% | 1.48 µM | – | –
N#Cc1ccc(O[C@H]2CC[C@H](NC(=O)c3ccc(N4CCC(N5CCC6(CC5)CCC5(CC6)COc6c5ccc5c6CN(C6CCC(=O)NC6=O)C5=O)CC4)nn3)CC2)cc1Cl (relative stereo) [A-P-7, N-((1r,4r)-4-(3-chloro-4-cyanophenoxy)cyclohexy 1)-6-(4-(7-(2,6-dioxopiperidin-3-yl)-6-oxo-7,8-dihydro-2H,6H-dipyridyl[2,3-e]isoindole-3,1'-cyclohexane-4',4'"-piperidin]-1"-yl)pyridazine-3-carboxamide] | 85% | 75% | 1.88 µM | – | –
COc1cc(O[C@H]2C(C)(C)[C@H](NC(=O)c3ccc(N4CCC(F)(CN5CCC6(CC5)COc5c6ccc(C(=O)N[C@H]6CCC(=O)NC6=O)c5F)CC4)cc3)C2(C)C)ccc1C#N [A-P-84] | -6% | 33% | 0.11 µM | – | –
COc1cc(O[C@H]2C(C)(C)[C@H](NC(=O)c3ccc(N4CCC5(CC4)CC(N4CCC6(CCc7cc(C(=O)N[C@H]8CCC(=O)NC8=O)c(F)cc7O6)CC4)C5)cc3)C2(C)C)ccc1C#N [A-P-37, 1'-(7-(4-(((1R,3R)-3-(4-cyano-3-methoxyphenoxy)-2,2,4,4-tetramethylcyclobutyl)carbamoyl)phenyl)-7-azaspiro[3.5]nonan-2-yl)-N-((S)-2,6-dioxopiperidin-3-yl)-7-fluorospiro[chroman-2,4'-piperidin]-6-carboxamide] | 10% | 63% | 2.23 µM | – | –
COc1cc(O[C@H]2CC[C@H](NC(=O)c3ccc(N4CCC(CN5CCC6(CC5)COc5cc7c(cc56)n(C)c(=O)n7C5CCC(=O)NC5=O)CC4)nn3)CC2)ccc1C#N (relative stereo) [A-P-17] | 1% | -18% | 91.2 µM | – | –
N#Cc1ccc(O[C@H]2CC[C@H](NC(=O)c3ccc(N4CCC(N5CC6(CCC7(CC6)COc6c7ccc7c6CN(C6CCC(=O)NC6=O)C7=O)C5)CC4)nn3)CC2)cc1Cl (relative stereo) [A-P-1, N-((1r,4r)-4-(3-chloro-4-cyanophenoxy)cyclohexyl)-6-(4-(7'-(2,6-dioxopiperidin-3-yl)-6'-oxo-7',8'-dihydro-2'-H,6'-H-dihydro[azetidine-3,1'-cyclohexane-4',3"-furo[2,3-e]isoindol]-1-yl)piperidin-1-yl)pyridazine-3-carboxamide] | 66% | 48% | > 10 µM | – | –
COc1cc(O[C@H]2C(C)(C)[C@H](NC(=O)c3ccc(N4CCC(CN5CCC6(CCc7cc(F)c(C(=O)N[C@H]8CCC(=O)NC8=O)cc7O6)CC5)(OC)CC4)cc3)C2(C)C)ccc1C#N [A-P-40] | 26% | 46% | 6.56 µM | – | –
COc1cc(O[C@H]2C(C)(C)[C@H](NC(=O)c3ccc(N4CCC(CN5CCC6(CCc7cc(C(=O)N[C@H]8CCC(=O)NC8=O)c(F)cc7O6)CC5)CC4)nn3)C2(C)C)ccc1C#N [A-P-34, 1'-((1-(6-(((1R,3R)-3-(4-cyano-3-methoxyphenoxy)-2,2,4,4-tetramethylcyclobutyl)carbamoyl)pyridazin-3-yl)piperidin-4-yl)methyl)-N-((S)-2,6-dioxopiperidin-3-yl)-7-fluorospiro[chroman-2,4'-piperidin]-6-carboxamide] | 72% | 85% | 0.87 µM | – | –
